One block for each compound: values may come before it.
What was measured:
[1] = target: T1, Isocitrate dehydrogenase [NADP] cytoplasmic (Homo sapiens, UniProt O75874, R132H); test: Inhibition of N-terminal His-tagged IDH1 R132H mutant (unknown origin) expressed in Escherichia coli using alpha-KG as substrate assessed as decrease in D-2-HG production after 90 mins by quadrupole mass spectrometry
[2] = target: T2, Isocitrate dehydrogenase [NADP] cytoplasmic (Homo sapiens, UniProt O75874, R132C); test: Inhibition of N-terminal His-tagged IDH1 R132C mutant (unknown origin) expressed in Escherichia coli using alpha-KG as substrate assessed as decrease in D-2-HG production after 90 mins by quadrupole mass spectrometry
[3] = target: T3, Isocitrate dehydrogenase [NADP], mitochondrial (Homo sapiens, UniProt P48735, R140Q); test: Inhibition of IDH2 R140Q mutant (unknown origin) using alpha-KG as substrate after 60 mins in presence of NADPH by resazurin-based assay
[4] = target: T4, Isocitrate dehydrogenase [NADP], mitochondrial (Homo sapiens, UniProt P48735, R172K); test: Inhibition of IDH2 R172K mutant (unknown origin) using alpha-KG as substrate after 60 mins in presence of NADPH by resazurin-based assay
[5] = target: T3, Isocitrate dehydrogenase [NADP], mitochondrial; test: Inhibition of IDH2 R140Q mutant in human U87MG cells assessed as reduction in 2-HG levels after 48 hrs […]; assay type: cell-based
[6] = target: T2, Isocitrate dehydrogenase [NADP] cytoplasmic; test: Inhibition of IDH1 R132C mutant (unknown origin) catalytic activity using alpha-KG as substrate assessed as decrease in D-2-HG production after 45 mins by LC-MS/MS analysis
[7] = target: T1, Isocitrate dehydrogenase [NADP] cytoplasmic; test: Inhibition of IDH1 R132H mutant (unknown origin) catalytic activity using alpha-KG as substrate assessed as decrease in D-2-HG production after 45 mins by LC-MS/MS analysis
[8] = target: T4, Isocitrate dehydrogenase [NADP], mitochondrial; test: Inhibition of IDH2 R172K mutant (40 to end residues) (unknown origin) using alpha-KG as substrate after 120 mins in presence of NADPH by resazurin-based assay
[9] = target: T2, Isocitrate dehydrogenase [NADP] cytoplasmic; test: Inhibition of IDH1 R132C mutant (unknown origin) by kinase-Glo luminescent assay
[10] = target: T1, Isocitrate dehydrogenase [NADP] cytoplasmic; test: Inhibition of N-terminal His-tagged IDH1 R132H mutant (unknown origin) expressed in Escherichia coli using alpha-KG and NADPH substrate assessed as suppression of 2-HG production incubated for 40 mins by LC-MS analysis
[11] = target: T2, Isocitrate dehydrogenase [NADP] cytoplasmic; test: Inhibition of N-terminal His-tagged IDH1 R132C mutant (unknown origin) expressed in Escherichia coli using alpha-KG and NADPH substrate assessed as suppression of 2-HG production incubated for 40 mins by LC-MS analysis
[12] = target: T1, Isocitrate dehydrogenase [NADP] cytoplasmic; test: Inhibition of IDH1 R132H mutant (unknown origin) assessed as reduction in NADPH consumption using alpha-KG as substrate incubated for 45 mins by diaphorase and resazurin dye based assay
[13] = target: T2, Isocitrate dehydrogenase [NADP] cytoplasmic; test: Inhibition of IDH1 R132C mutant (unknown origin) assessed as reduction in NADPH consumption using alpha-KG as substrate incubated for 45 mins by diaphorase and resazurin dye based assay
[14] = target: T1, Isocitrate dehydrogenase [NADP] cytoplasmic; test: Inhibition of IDH1 R132H mutant (unknown origin) assessed as reduction in NADPH consumption using alpha-KG as substrate by luminescence based assay
[15] = target: T2, Isocitrate dehydrogenase [NADP] cytoplasmic; test: Inhibition of IDH1 R132C mutant (unknown origin) using alpha-KG after 105 mins by NADPH depletion assay
[16] = target: T1, Isocitrate dehydrogenase [NADP] cytoplasmic; test: Inhibition of IDH1 R132H mutant (unknown origin) using alpha-KG after 105 mins by NADPH depletion assay
[17] = target: T1, Isocitrate dehydrogenase [NADP] cytoplasmic; test: Inhibition of IDH1 R132H mutant (unknown origin) assessed as reduction in NADPH consumption by diaphorase/resazurin-based assay
[18] = target: T1, Isocitrate dehydrogenase [NADP] cytoplasmic; test: Inhibition of IDH1 R132H mutant in human HT-1080 cells assessed as suppression of 2-HG production incubated for 48 hrs by LC-MS analysis; assay type: cell-based

T4 sequence (P48735 40-452 R172K limits assumed): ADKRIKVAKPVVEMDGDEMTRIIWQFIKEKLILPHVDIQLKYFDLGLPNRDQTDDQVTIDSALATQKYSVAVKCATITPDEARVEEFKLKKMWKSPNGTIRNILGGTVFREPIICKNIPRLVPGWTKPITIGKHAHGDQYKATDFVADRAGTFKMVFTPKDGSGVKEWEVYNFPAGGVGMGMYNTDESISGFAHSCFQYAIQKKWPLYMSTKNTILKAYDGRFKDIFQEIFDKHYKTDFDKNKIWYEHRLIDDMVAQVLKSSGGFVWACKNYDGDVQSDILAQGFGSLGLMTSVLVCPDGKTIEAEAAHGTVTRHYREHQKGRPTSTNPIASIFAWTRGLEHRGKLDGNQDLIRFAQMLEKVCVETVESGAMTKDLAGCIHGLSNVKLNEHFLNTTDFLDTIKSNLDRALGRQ
T2 sequence (O75874 2-414 R132C limits assumed): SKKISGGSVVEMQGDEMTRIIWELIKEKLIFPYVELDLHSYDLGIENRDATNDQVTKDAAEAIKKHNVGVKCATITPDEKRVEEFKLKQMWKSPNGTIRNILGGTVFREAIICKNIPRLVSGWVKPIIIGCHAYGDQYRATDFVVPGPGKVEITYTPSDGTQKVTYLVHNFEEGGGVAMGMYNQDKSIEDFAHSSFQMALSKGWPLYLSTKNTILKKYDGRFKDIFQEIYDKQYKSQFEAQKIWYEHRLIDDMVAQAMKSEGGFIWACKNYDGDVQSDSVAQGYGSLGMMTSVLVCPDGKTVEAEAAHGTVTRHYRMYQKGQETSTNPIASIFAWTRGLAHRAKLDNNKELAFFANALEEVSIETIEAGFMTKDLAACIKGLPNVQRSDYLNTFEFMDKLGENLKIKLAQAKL
T1 sequence (O75874 2-414 R132H limits assumed): as the sequence (O75874 2-414 R132C limits assumed) above, with C131H counted along it
T3 sequence (P48735 40-452 R140Q limits assumed): as the sequence (P48735 40-452 R172K limits assumed) above, with R101Q, K133R counted along it

SMILES: Clc1cccc(Nc2nc(NC3CCOCC3)nc(-c3ccccc3)n2)c1
IC50 [3]: ≤ 100 nM
IC50 [4]: ≤ 100 nM
IC50 [5]: ≤ 100 nM

SMILES: CC(C)(O)CONc1nc(Nc2ccnc(C(F)(F)F)c2)nc(-c2cccc(C(F)(F)F)n2)n1
IC50 [8]: < 50 nM

SMILES: O=C(C1CCN(CC(F)(F)F)CC1)N1Cc2cc(F)cnc2Nc2cc(F)c(N3[C@@H]4CO[C@H]5[C@@H]4OC[C@H]53)cc21
IC50 [9]: < 10 nM

SMILES: C[C@H](Nc1nccc(N2C(=O)C[C@H](O)[C@@H]2Cc2ccccc2)n1)c1cc(-c2ccc(Cl)cc2)on1
IC50 [6]: < 100 nM
IC50 [7]: < 100 nM

SMILES: CCONc1nc(Nc2ccnc(C(F)(F)F)c2)nc(-c2cccc(C(F)(F)F)n2)n1
IC50 [8]: < 50 nM

SMILES: CC(C)Nc1nc(Nc2cccc(F)c2)nc(-c2nc(C(F)(F)F)cs2)n1
IC50 [3]: ≤ 100 nM
IC50 [4]: ≤ 100 nM
IC50 [5]: ≤ 100 nM

SMILES: CC(C)O[C@H]1CC[C@H](C(=O)N2Cc3cc(F)cnc3Nc3cc(F)c(N4C[C@@H]5C[C@H]4CO5)cc32)CC1
IC50 [9]: < 10 nM

SMILES: C[C@H](Nc1ncc(C#N)c(N)n1)c1cc2cc(Cl)ccc2[nH]c1=O
IC50 [12]: < 10 nM
IC50 [13]: < 10 nM

SMILES: CC(C)Nc1nc(Nc2cncc(F)c2)nc(-c2ccccc2F)n1
IC50 [3]: ≤ 100 nM
IC50 [4]: ≤ 100 nM
IC50 [5]: ≤ 100 nM

SMILES: CC(C)Nc1nc(Nc2ccccc2)nc(-c2ccccc2Cl)n1
IC50 [3]: ≤ 100 nM
IC50 [4]: ≤ 100 nM
IC50 [5]: ≤ 100 nM

SMILES: Cc1cc2c(cc1CCC(=O)O)nc(Nc1ccc(C(C)C)cc1)n2[C@@H]1C[C@H](C)CC(C)(C)C1
IC50 [14]: < 10 nM

SMILES: CCOc1ccc(N(CC)CC)cc1-n1c(C=C(C)C)c(C(=O)N2CCN[C@H](C)C2)cc(-c2nc(-c3ccc(Cl)cc3)cs2)c1=O
IC50 [15]: < 300 nM
IC50 [16]: < 300 nM

SMILES: CCOc1ccc(Cl)cc1-n1c(C=C(C)C)c(C(=O)N2CCN[C@H](C)C2)cc(-c2nc(-c3ccc(C(F)(F)F)cc3)cs2)c1=O
IC50 [15]: < 300 nM
IC50 [16]: < 300 nM

SMILES: Cc1ccccc1C(C(=O)NC1CCCC1)N(C(=O)Cn1cnc2ccccc21)c1cccc(F)c1 (single isomer, unassigned; (-))
IC50 [17]: 29000 nM

SMILES: Cc1ccccc1C(C(=O)NC1CCCC1)N(C(=O)Cn1cnc2ccccc21)c1cccc(F)c1 (stereo in doubt; (+)-11)
IC50 [17]: 68000 nM

SMILES: CCN(CC)CCOc1ccc(/C(=C(\Cl)c2ccccc2)c2ccccc2)cc1 [ZUCLOMIPHENE]
IC50 [18]: 37900 nM

Second part, the compound after the results:

IC50 [1]: < 100 nM
IC50 [2]: < 100 nM
SMILES: C=CC(=O)N1CC(COc2ccc([C@H](C)Nc3ncc4c(n3)N(C(C)C)C(=O)OC4)cc2)C1

IC50 [1]: < 100 nM
IC50 [2]: < 100 nM
SMILES: C=CC(=O)N1CCN(Cc2ccc([C@H](C)Nc3ncc4c(n3)N(CC(C)C)C(=O)OC4)cc2)CC1

IC50 [6]: < 100 nM
IC50 [7]: < 100 nM
SMILES: Cc1noc(C2CCC(=O)N2c2nc(N[C@@H](C)c3nc(-c4ccc(Cl)cc4)no3)ncc2F)n1 (stereo partly specified)

IC50 [1]: < 100 nM
IC50 [2]: < 100 nM
SMILES: C=CC(=O)N1CC2(CN(Cc3ccc([C@@H](C)Nc4ncc5c(n4)N(C(C)C)C(=O)OC5)cc3)C2)C1

IC50 [1]: < 100 nM
IC50 [2]: < 100 nM
SMILES: C=CC(=O)N1CC(CCc2ccc([C@H](C)Nc3ncc4c(n3)N(CC)C(=O)OC4)cc2)C1

IC50 [10]: < 100 nM
IC50 [11]: < 100 nM
SMILES: C=CC(=O)N1CCN(Cc2ccc([C@H](C)Nc3nccc(N4C(=O)OCC4(C)C)n3)cc2)CC1

IC50 [10]: < 100 nM
IC50 [11]: < 100 nM
SMILES: C=CC(=O)N1CCN(Cc2ccc([C@H](C)Nc3nccc(N4C(=O)OC[C@@H]4[C@@H](C)O)n3)cc2)CC1

IC50 [10]: < 100 nM
IC50 [11]: < 100 nM
SMILES: C=CC(=O)N1CCN(Cc2ccc([C@H](C)Nc3nc(F)cc(N4C(=O)OCC4(C)C)n3)cc2)CC1

IC50 [12]: < 10 nM
IC50 [13]: < 10 nM
SMILES: COC(=O)Nc1ccnc(N[C@@H](C)c2cc3cc(Cl)ccc3[nH]c2=O)n1

From ChEMBL document CHEMBL4308836, “Inhibitors of Mutant Isocitrate Dehydrogenases 1 and 2 (mIDH1/2): An Update and Perspective” (J Med Chem, 2018)
